How the values were obtained:
[1] = tested on: Young adult female Long-Evans rats; assay: Conception index of female rats with abnormal ovulatory cycles; assay type: in vivo, rat; settings: for Conception Index (%): eight weeks, then mated
Method: Young adult female Long-Evans rats (3 months-old) with abnormal ovulatory cycles were fed diets containing 10-Hydroxy-2-decenoic acid (QBA) or no QBA for eight (8) weeks and then mated with a male rat. Female rats having normal ovulatory cycles were used as positive controls and were not fed QBA. The conception index was determined. The conception index is a measure of conception efficiency and is equal to the number of pregnancies divided by the number of discernable mating sessions multiplied by 100.

[2] = Townsend et al. 1960; Izuta et al. 2009; cited from earlier work
[3] = Weight management in mice, colitis-related disease state (cell transfer insult); assay type: in vivo, mouse; settings: for % Original Wt: Diseased + QBA 60 mg/kg body weight/day
Method: Mice (45 days of age) were fed 60 mg/kg body weight/day QBA (equivalent to 24 mg/kg/d in rats; HED of ˜240 mg/day, N=10) or a control diet (N=15) for 28 days. […] After 28 days, all 10 of the mice fed QBA and 10 of the 15 control mice were subjected to a cell transfer insult wherein the mice were considered to be in a colitis-related disease state. The undiseased controls (N=5) and the diseased controls (N=10) continued on their control diets, and the diseased QBA-fed animals continued on their QBA diets (60 mg/kg body weight/day QBA), for an additional 49 days.

In the case of `O=C(O)C=CCCCCCCCO` [QBA, 10-Hydroxy-2-decenoic acid], the “Conception Index (%)” value ([1]; QBA 0.4 mg/kg/day) is reported as 112.5%, the “Conception Index (%)” value ([1]; QBA 4 mg/kg/day) is reported as 107.7% and the “Conception Index (%)” value ([1]; QBA 12 mg/kg/day) is reported as 225.0%. The “Conception Index (%)” value ([1]; QBA 24 mg/kg/day) was 200.0%, the conception index ([1]; summary of Table 17) was “increased the conception index” and the “in vitro antitumor activity” value [2] was “antitumor activity”. For the same compound, the “% Original Wt” value ([3]; day 0) was 0.00%, the “% Original Wt” value ([3]; day 3) was 1.93% and the “% Original Wt” value ([3]; day 7) was 5.33%. For the same compound, the “% Original Wt” value ([3]; day 10) was 9.91%, the “% Original Wt” value ([3]; day 14) was 9.09% and the “% Original Wt” value ([3]; day 17) was 9.10%. For the same compound, the “% Original Wt” value ([3]; day 21) was 12.60%, the “% Original Wt” value ([3]; day 24) was 15.47% and the “% Original Wt” value ([3]; day 28* (cell transfer insult after 28 days)) was 16.19%. The “% Original Wt” value ([3]; day 31) was 18.82%, the “% Original Wt” value ([3]; day 35) was 20.65% and the “% Original Wt” value ([3]; day 38) was 19.66%. For the same compound, the “% Original Wt” value ([3]; day 42) was 21.27%, the “% Original Wt” value ([3]; day 45) was 22.86% and the “% Original Wt” value ([3]; day 49) was 24.04%. For the same compound, the “% Original Wt” value ([3]; day 52) was 24.05%, the “% Original Wt” value ([3]; day 56) was 22.29% and the “% Original Wt” value ([3]; day 59) was 21.83%. The “% Original Wt” value ([3]; day 63) was 23.89%, the “% Original Wt” value ([3]; day 66) was 22.42% and the “% Original Wt” value ([3]; day 70) was 22.95%. The “% Original Wt” value ([3]; day 73) was 21.96%, the “% Original Wt” value ([3]; day 77) was 20.56% and the “weight of mice in a diseased state versus undiseased controls” value ([3]; QBA 60 mg/kg body weight/day, colitis-related disease state) was “maintained their weight similar to the undiseased control mice”. For the same compound, the “percentage increase in body weight versus control diet” value ([3]; QBA 60 mg/kg body weight/day, first 28 days, before insult) was “greater percentage increase in body weight”.

— US10004711B2, “Methods and compositions comprising 10-hydroxy-2-decenoic acid” (DSM IP ASSETS B.V., priority 2014, dated 2018)
